{"source": "patent US10051857B2", "about": "“Formulation component” (SYNGENTA LIMITED, priority 2011, dated 2018)", "assay_in_all_cases": "Glasshouse adjuvant test with mesotrione (Example 6)", "assay_type_in_all_cases": "in vivo", "key": {"[1]": {"test_system": "Amaranthus tuberculatus (AMATE)", "settings": "mesotrione 45 or 90 g/ha, adjuvant 0.2% v/v or none, 200 l/ha; growth stage 13/14; mean over two rates, three replicates, 7, 14 and 21 days", "protocol": "(§1) Compound 1 was tested in a glasshouse against four weed species using the herbicide mesotrione. A 20% w/w stock emulsion of compound 1 was prepared additionally containing 2% w/w Gohsenol® GL03 and 2% w/w Pluronic® PE10500 as surfactants. Using this, an agrochemical composition was prepared containing 0.2% v/v of the adjuvant in a track sprayer and was applied at a volume of 200 liters per hectare. Mesotrione was applied at either 45 or 90 grams of pesticide per hectare on each of the weed species. The weed species and their growth stage at spraying were Amaranthus tuberculatus (AMATE; growth stage 13/14), Brachiaria decumbens (BRADE; growth stage 13/14), Digitaria sanguinalis (DIGSA; growth stage 14), and Polygonum convolvulus (POLCO; growth stage 11/11.5).\n(§2) Each test was replicated three times. The efficacy of the herbicide was assessed visually and expressed as a percentage of the leaf area killed. Samples were assessed at time periods of 7, 14 and 21 days following application. The results shown in Table 6 below are mean averages over the two rates of mesotrione, three replicates and the three assessment timings, and are compared to the efficacy of mesotrione in absence of adjuvant."}, "[2]": {"test_system": "Polygonum convolvulus (POLCO)", "settings": "mesotrione 45 or 90 g/ha, adjuvant 0.2% v/v or none, 200 l/ha; growth stage 11/11.5; mean over two rates, three replicates, 7, 14 and 21 days", "protocol": "as §1, §2"}, "[3]": {"test_system": "Digitaria sanguinalis (DIGSA)", "settings": "mesotrione 45 or 90 g/ha, adjuvant 0.2% v/v or none, 200 l/ha; growth stage 14; mean over two rates, three replicates, 7, 14 and 21 days", "protocol": "as §1, §2"}, "[4]": {"test_system": "Brachiaria decumbens (BRADE)", "settings": "mesotrione 45 or 90 g/ha, adjuvant 0.2% v/v or none, 200 l/ha; growth stage 13/14; mean over two rates, three replicates, 7, 14 and 21 days", "protocol": "as §1, §2"}}, "data": [{"smiles": "CCN(CC)C(=O)c1cccc(C)c1", "note": "[Compound 1, N, N-diethyl-3-methylbenzamide]", "values": [{"measurement": "Mean percentage kill AMATE", "setting": "[1]", "value": 71.7, "unit": "%"}, {"measurement": "Mean percentage kill POLCO", "setting": "[2]", "value": 87.2, "unit": "%"}, {"measurement": "Mean percentage kill DIGSA", "setting": "[3]", "value": 28.6, "unit": "%"}, {"measurement": "Mean percentage kill BRADE", "setting": "[4]", "value": 28.9, "unit": "%"}]}]}
